Patent US11407767B2, “Heterocyclyl substituted pyrrolopyridines that are inhibitors of the CDK12 kinase” (The University of Nottingham, priority 2017, dated 2022)
Counter-ions that a name gives are not always drawn.

Molecular target: CDK12/CycK (Homo sapiens, UniProt Q9NYV4)
Assay: Inhibition of CDK12 (ADP-Glo kinase assay)
Type: biochemical
Settings: 60 nM CDK12/CycK, 30 minutes pre-incubation, 1 μM ATP, 0.5 μM RBER-IRStide substrate, 1 h at 25° C., read-out: CDK12/cyclin K IC50
Experimental: Assay buffer comprised 50 mM HEPES pH 7.5, 1 mM DTT, 20 mM MgCl2, 3 mM MnCl2, 3 μM Na3VO4 and 50 μg/ml PEG8000. Kinase reactions were carried out in 384-well Optiplates™ (PerkinElmer 6007299). Test compounds were dissolved & diluted in dimethyl sulfoxide (DMSO) and cross diluted into assay buffer with a final DMSO concentration of 1% (v/v) in the assay. Test compounds (or 1% DMSO in control and blank wells) were pre-incubated with 60 nM CDK12/CycK for 30 minutes. After this time 1 μM Adenosine-5′-triphosphate (ATP) and 0.5 μM RBER-IRStide substrate (ProQinase 0863-0000-1) were added to commence the kinase reaction. Incubations were carried out for 1 h at 25° C. with kinase activity determined using the ADP-Glo™ reagent from Promega according to the manufacturer's instructions. Light generated is proportional to kinase activity and measured using a luminometer (EnVision, PerkinElmer). The signal obtained in the blank wells (containing no kinase) was subtracted from all other wells and IC50 values were determined by fitting a sigmoidal curve to % inhibition of control versus Log10 compound concentration.

Chain of CDK12/CycK (Q9NYV4 whole entry): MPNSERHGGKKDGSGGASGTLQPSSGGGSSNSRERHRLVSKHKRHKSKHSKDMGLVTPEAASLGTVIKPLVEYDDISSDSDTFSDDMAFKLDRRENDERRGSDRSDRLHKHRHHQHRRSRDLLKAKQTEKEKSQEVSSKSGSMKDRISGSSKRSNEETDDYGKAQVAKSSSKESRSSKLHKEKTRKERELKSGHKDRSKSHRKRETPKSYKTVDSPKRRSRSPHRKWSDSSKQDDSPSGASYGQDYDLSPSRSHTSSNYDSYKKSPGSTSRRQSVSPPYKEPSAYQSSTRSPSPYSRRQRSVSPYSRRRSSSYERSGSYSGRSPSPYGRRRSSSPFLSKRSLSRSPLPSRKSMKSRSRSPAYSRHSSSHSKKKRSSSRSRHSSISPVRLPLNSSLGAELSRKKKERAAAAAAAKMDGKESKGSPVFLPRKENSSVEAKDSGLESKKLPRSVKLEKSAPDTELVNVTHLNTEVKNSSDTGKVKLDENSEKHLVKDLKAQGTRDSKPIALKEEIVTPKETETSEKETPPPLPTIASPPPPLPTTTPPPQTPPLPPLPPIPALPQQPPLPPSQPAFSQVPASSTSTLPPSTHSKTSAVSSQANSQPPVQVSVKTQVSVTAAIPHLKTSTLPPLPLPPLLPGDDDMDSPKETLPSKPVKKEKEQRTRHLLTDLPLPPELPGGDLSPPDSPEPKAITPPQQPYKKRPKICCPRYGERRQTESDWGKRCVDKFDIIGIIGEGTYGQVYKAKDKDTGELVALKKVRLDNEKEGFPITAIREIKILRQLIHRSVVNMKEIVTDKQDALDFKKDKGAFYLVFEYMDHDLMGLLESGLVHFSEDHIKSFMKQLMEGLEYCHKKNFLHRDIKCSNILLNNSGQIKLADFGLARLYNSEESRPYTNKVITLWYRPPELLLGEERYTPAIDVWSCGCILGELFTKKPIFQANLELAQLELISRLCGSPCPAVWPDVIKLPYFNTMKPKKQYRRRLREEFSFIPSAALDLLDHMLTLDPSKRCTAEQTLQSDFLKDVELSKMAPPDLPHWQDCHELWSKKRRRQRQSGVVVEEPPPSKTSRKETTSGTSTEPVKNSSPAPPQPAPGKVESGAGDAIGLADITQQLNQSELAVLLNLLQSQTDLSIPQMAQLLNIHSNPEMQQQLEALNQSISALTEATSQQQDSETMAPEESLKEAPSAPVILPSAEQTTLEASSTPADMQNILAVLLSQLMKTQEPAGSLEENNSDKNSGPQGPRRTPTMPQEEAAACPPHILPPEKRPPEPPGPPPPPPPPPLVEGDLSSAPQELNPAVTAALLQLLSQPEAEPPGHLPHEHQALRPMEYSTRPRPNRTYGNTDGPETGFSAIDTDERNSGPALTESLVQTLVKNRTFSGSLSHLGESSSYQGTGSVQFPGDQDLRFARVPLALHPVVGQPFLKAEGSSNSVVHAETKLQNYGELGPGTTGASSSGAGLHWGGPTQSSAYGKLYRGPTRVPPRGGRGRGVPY
Chain of CDK12/CycK (O75909 whole entry partner): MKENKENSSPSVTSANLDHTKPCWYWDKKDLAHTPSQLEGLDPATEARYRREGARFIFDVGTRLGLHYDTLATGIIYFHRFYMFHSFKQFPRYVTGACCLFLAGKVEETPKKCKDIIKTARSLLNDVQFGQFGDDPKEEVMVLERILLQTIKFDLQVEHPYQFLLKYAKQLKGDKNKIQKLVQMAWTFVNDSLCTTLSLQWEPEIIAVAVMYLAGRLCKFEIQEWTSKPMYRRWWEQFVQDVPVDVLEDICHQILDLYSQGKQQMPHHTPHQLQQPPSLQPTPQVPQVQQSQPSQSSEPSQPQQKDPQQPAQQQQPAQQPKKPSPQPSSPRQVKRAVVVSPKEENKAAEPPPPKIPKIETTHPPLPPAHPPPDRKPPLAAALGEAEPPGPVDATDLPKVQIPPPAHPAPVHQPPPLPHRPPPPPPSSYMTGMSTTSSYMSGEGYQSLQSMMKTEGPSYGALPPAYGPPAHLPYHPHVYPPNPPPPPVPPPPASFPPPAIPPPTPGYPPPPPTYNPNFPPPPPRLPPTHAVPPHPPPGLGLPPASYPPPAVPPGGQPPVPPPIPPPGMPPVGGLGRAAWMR

Structure (SMILES)	IC50
NCCc1cc2c(-c3cccnc3)ccnc2[nH]1 [Example 104, 2-(4-(Pyridin-3-yl)-1H-pyrrolo[2,3-b]pyridin-2-yl)ethan-1-amine]	1 to 30 µM
C=CC(=O)N1CCC[C@H]1C(=O)N[C@H]1C[C@@H](c2cc3c(-c4cnn5ncccc45)ccnc3[nH]2)C1 [Example 205, (S)-1-Acryloyl-N-((1 S,3R)-3-(4-(pyrazolo[1,5-b]pyridazin-3-yl)-1H-pyrrolo[2,3-b]pyridin-2-yl)cyclobutyl)pyrrolidine-2-carboxamide]	< 0.1 µM
O=S(=O)(NCc1cc2c(-c3cnn4ncccc34)ccnc2[nH]1)C1CC1 [Example 118, N-((4-(Pyrazolo[1,5-b]pyridazin-3-yl)-1H-pyrrolo[2,3-b]pyridin-2-yl)methyl)cyclopropanesulfonamide]	1 to 30 µM
Cc1cnc2[nH]ccc2c1-c1cnn2ncccc12 [Example 9, 3-(5-Methyl-1H-pyrrolo[2,3-b]pyridin-4-yl)pyrazolo[1,5-b]pyridazine]	1 to 30 µM
c1cnn2ncc(-c3ccnc4[nH]c(C5CCNC5)cc34)c2c1 (centres unmarked) [Example 122, 3-[2-(pyrrolidin-3-yl)-1H-pyrrolo[2,3-b]pyridine-4-yl)pyrazolo[1,5-b]pyridazine]	< 0.1 µM
C=CC(=O)N1CCO[C@@H](C(=O)NCCc2cc3c(-c4cnn5ncccc45)ccnc3[nH]2)C1 (single isomer, unassigned) [Example 61]	< 0.1 µM
CN1CCN(Cc2cc3c(-c4cnn5ncccc45)ccnc3[nH]2)CC1 [Example 16, 3-(2-((4-Methylpiperazin-1-yl)methyl)-1H-pyrrolo[2,3-b]pyridin-4-yl)pyrazolo[1,5-b]pyridazine]	0.1 to 1 µM
C=CC(=O)N1CCC1C(=O)NCCc1cc2c(-c3cnn4ncccc34)ccnc2[nH]1 (single isomer, unassigned) [Example 40]	< 0.1 µM
Cc1cc(-c2cnn3ncccc23)c2cc[nH]c2n1 [Example 1, 3-(6-Methyl-1H-pyrrolo[2,3-b]pyridin-4-yl)pyrazolo[1,5-b]pyridazine]	1 to 30 µM
O=C(CCl)Nc1ccccc1C(=O)N1CCC(c2cc3c(-c4cnn5ncccc45)ccnc3[nH]2)C1 (centres unmarked) [Example 169, 2-Chloro-N-(2-(3-(4-(pyrazolo[1,5-b]pyridazin-3-yl)-1H-pyrrolo[2,3-b]pyridin-2-yl)pyrrolidine-1-carbonyl)phenyl)acetamide]	< 0.1 µM
O=C(NCCc1cc2c(-c3cnn4ncccc34)ccnc2[nH]1)[C@H]1CCCN1C(=O)CO [Example 79, (R)-1-(2-Hydroxyacetyl)-N-(2-(4-(pyrazolo[1,5-b]pyridazin-3-yl)-1H-pyrrolo[2,3-b]pyridin-2-yl)ethyl)pyrrolidine-2-carboxamide]	0.1 to 1 µM
C#CC(=O)Nc1ccc(C(=O)N2CCC(c3cc4c(-c5cnn6ncccc56)ccnc4[nH]3)C2)cc1 (centres unmarked) [Example 128, N-(4-(3-(4-(Pyrazolo[1,5-b]pyridazin-3-yl)-1H-pyrrolo[2,3-b]pyridin-2-yl)pyrrolidine-1-carbonyl)phenyl)propiolamide]	< 0.1 µM
C=CC(=O)N1CC[C@H](C(=O)NCc2cc3c(-c4cnn5ncccc45)ccnc3[nH]2)C1 [Example 178, (S)-1-Acryloyl-N-((4-(pyrazolo[1,5-b]pyridazin-3-yl)-1H-pyrrolo[2,3-b]pyridin-2-yl)methyl)pyrrolidine-3-carboxamide]	1 to 30 µM
C=CC(=O)N1CC[C@@H](C(=O)NCc2cc3c(-c4cnn5ncccc45)ccnc3[nH]2)C1 [Example 179, (R)-1-Acryloyl-N-((4-(pyrazolo[1,5-b]pyridazin-3-yl)-1H-pyrrolo[2,3-b]pyridin-2-yl)methyl)pyrrolidine-3-carboxamide]	1 to 30 µM
C=CC(=O)Nc1cccc(C(=O)N2CC[C@@H](c3cc4c(-c5cnn6ncccc56)ccnc4[nH]3)C2)c1 (single isomer, unassigned) [Example 149, N-(3-(3-(4-(Pyrazolo[1,5-b]pyridazin-3-yl)-1H-pyrrolo[2,3-b]pyridin-2-yl)pyrrolidine-1-carbonyl)phenyl)acrylamide]	< 0.1 µM
C=CC(=O)N1CCC[C@H]1C(=O)NCCCc1cc2c(-c3cnn4ncccc34)ccnc2[nH]1 [Example 216, (S)-1-Acryloyl-N-(3-(4-(pyrazolo[1,5-b]pyridazin-3-yl)-1H-pyrrolo[2,3-b]pyridin-2-yl)propyl)pyrrolidine-2-carboxamide]	< 0.1 µM
C=CC(=O)NCc1ccc(C(=O)NCc2cc3c(-c4cnn5ncccc45)ccnc3[nH]2)cc1 [Example 189, 4-(Acrylamidomethyl)-N-((4-(pyrazolo[1,5-b]pyridazin-3-yl)-1H-pyrrolo[2,3-b]pyridin-2-yl)methyl)benzamide]	1 to 30 µM
OCC(O)COc1cnn2ncc(-c3ccnc4[nH]ccc34)c2c1 (centres unmarked) [Example 131, 3-((3-(1H-Pyrrolo[2,3-b]pyridin-4-yl)pyrazolo[1,5-b]pyridazin-5-yl)oxy)propane-1,2-diol]	1 to 30 µM
C=CC(=O)N1CCC[C@@H]1C(=O)N1CCC(c2cc3c(-c4cnn5ncccc45)ccnc3[nH]2)C1 (stereo partly drawn) [Example 154, 1-((2R)-2-(3-(4-(Pyrazolo[1,5-b]pyridazin-3-yl)-1H-pyrrolo[2,3-b]pyridin-2-yl)pyrrolidine-1-carbonyl)pyrrolidin-1-yl)prop-2-en-1-one]	< 0.1 µM
CN(C)C/C=C/C(=O)N1CCCC[C@H]1C(=O)NCCc1cc2c(-c3cnn4ncccc34)ccnc2[nH]1 [Example 87, (S,E)-1-(4-(Dimethylamino)but-2-enoyl)-N-(2-(4-(pyrazolo[1,5-b]pyridazin-3-yl)-1H-pyrrolo[2,3-b]pyridin-2-yl)ethyl)piperidine-2-carboxamide]	1 to 30 µM
C=CC(=O)N1CCC[C@H]1C(=O)NCCc1cc2c(-c3ccnn3C)ccnc2[nH]1 [Example 51, (S)-1-Acryloyl-N-(2-(4-(1-methyl-1H-pyrazol-5-yl)-1H-pyrrolo[2,3-b]pyridin-2-yl)ethyl)pyrrolidine-2-carboxamide]	1 to 30 µM
Cc1ccc2c(-c3ccnc4[nH]ccc34)cnn2n1 [Example 26, 6-Methyl-3-(1H-pyrrolo[2,3-b]pyridin-4-yl)pyrazolo[1,5-b]pyridazine]	1 to 30 µM
CN(C)C/C=C/C(=O)N1CCCC[C@@H]1C(=O)NCCc1cc2c(-c3cnn4ncccc34)ccnc2[nH]1 [Example 88, (R,E)-1-(4-(Dimethylamino)but-2-enoyl)-N-(2-(4-(pyrazolo[1,5-b]pyridazin-3-yl)-1H-pyrrolo[2,3-b]pyridin-2-yl)ethyl)piperidine-2-carboxamide Formate Salt]	0.1 to 1 µM
CC(C)=C(C#N)C(=O)N1CCC[C@H]1C(=O)NCCc1cc2c(-c3cnn4ncccc34)ccnc2[nH]1 [Example 202, (S)-1-(2-Cyano-3-methylbut-2-enoyl)-N-(2-(4-(pyrazolo[1,5-b]pyridazin-3-yl)-1H-pyrrolo[2,3-b]pyridin-2-yl)ethyl)pyrrolidine-2-carboxamide]	1 to 30 µM
C=CC(=O)N[C@H]1CC[C@@H](C(=O)NCc2cc3c(-c4cnn5ncccc45)ccnc3[nH]2)CC1 [Example 187, (1s,4s)-4-Acrylamido-N-((4-(pyrazolo[1,5-b]pyridazin-3-yl)-1H-pyrrolo[2,3-b]pyridin-2-yl)methyl)cyclohexane-1-carboxamide]	1 to 30 µM
CN(C)C/C=C/C(=O)Nc1ccc(C(=O)NCc2cc3c(-c4cnn5ncccc45)ccnc3[nH]2)cc1 [Example 181]	0.1 to 1 µM
